# From patent publication US20060178374A1, “Aminoheteroaryl compounds as protein kinase inhibitors” (AGOURON PHARMACEUTICALS, INC., priority 2004, published 2006)
# Biological target: HGFR (c-Met) (Homo sapiens, UniProt P08581)
# Test: HGFR Continuous-Coupled Spectrophotometric Assay
# Type: biochemical
# Details: HGFR enzyme 50 nM, Met-2 peptide substrate, 37° C.
# How it was run: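 Human HGFR (50 nM final) phosphorylates the Met-2 activation-loop peptide, with ADP formation coupled through PK/LDH to NADH consumption, read as the A340 decrease over 10 min at 37 °C. Buffer was HEPES pH 7.5 with MgCl2, DTT, PEP and ATP.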
# HGFR (c-Met), sequence (P08581 974-1390): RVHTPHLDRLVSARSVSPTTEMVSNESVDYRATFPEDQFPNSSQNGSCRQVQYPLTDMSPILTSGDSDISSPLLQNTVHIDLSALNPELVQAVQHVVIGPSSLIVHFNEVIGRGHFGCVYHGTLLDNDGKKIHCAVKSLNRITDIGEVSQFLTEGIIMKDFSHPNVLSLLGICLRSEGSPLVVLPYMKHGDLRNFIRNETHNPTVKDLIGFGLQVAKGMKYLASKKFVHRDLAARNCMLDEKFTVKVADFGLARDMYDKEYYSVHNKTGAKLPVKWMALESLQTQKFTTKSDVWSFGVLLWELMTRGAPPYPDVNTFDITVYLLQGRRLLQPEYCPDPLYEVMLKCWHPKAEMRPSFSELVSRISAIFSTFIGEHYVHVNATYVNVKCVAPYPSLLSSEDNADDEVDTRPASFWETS
row,Ki [nM],SMILES
1,160,"CC(Oc1cc(-c2cnc(OC3CCNCC3)nc2)cnc1N)c1c(Cl)ccc(F)c1Cl (stereo not shown) [Example 116, 3-[1-(2,6-dichloro-3-fluorophenyl)ethoxy]-5-[2-(piperidin-4-yloxy)pyrimidin-5-yl]pyridin-2-amine]"
2,160,"COc1ncc(-c2cnc(N)c(OC(C)c3c(Cl)ccc(OC)c3Cl)c2)cn1 (stereo not shown) [Example 117, 3-[1-(2,6-dichloro-3-methoxyphenyl)ethoxy]-5-(2-methoxypyrimidin-5-yl)pyridin-2-amine]"
3,30,"CC(Oc1cc(-c2ccc(C(=O)N(C)CCN(C)C)cc2)cnc1N)c1c(Cl)ccc(F)c1Cl (stereo not shown) [Example 118, 4-{6-amino-5-[1-(2,6-dichloro-3-fluorophenyl)ethoxy]pyridin-3-yl}-N-[2-(dimethylamino)ethyl]-N-methylbenzamide]"
4,1500,"C[C@H](Oc1cc(-c2ccc(C(=O)N3CCNCC3)cc2)cnc1N)c1c(Cl)ccc(F)c1Cl [Example 119, 3-[(1S)-1-(2,6-dichloro-3-fluorophenyl)ethoxy]-5-[4-(piperazin-1-ylcarbonyl)phenyl] pyridin-2-amine]"
5,1000,"CC(Oc1cc(-c2cnc(N3CCN(C(=O)OC(C)(C)C)CC3)nc2)cnc1N)c1c(Cl)ccc(F)c1Cl (stereo not shown) [Example 120, tert-butyl 4-(5-{6-amino-5-[1-(2,6-dichloro-3-fluorophenyl)ethoxy]pyridin-3-yl}pyrimidin-2-yl)piperazine-1-carboxylate]"
6,53,"CC(Oc1cc(-c2cnc(N3CCNCC3)nc2)cnc1N)c1c(Cl)ccc(F)c1Cl (stereo not shown) [Example 121, 3-[1-(2,6-dichloro-3-fluorophenyl)ethoxy]-5-(2-piperazin-1-ylpyrimidin-5-yl)pyridin-2-amine]"
7,25,"CC(Oc1cc(-c2ccc(C(=O)N(C)CCCN(C)C)cc2)cnc1N)c1c(Cl)ccc(F)c1Cl (stereo not shown) [Example 122, 4-{6-amino-5-[1-(2,6-dichloro-3-fluorophenyl)ethoxy]pyridin-3-yl}-[3-(dimethylamino)propyl]-N-methylbenzamide]"
8,60,"CNCCN(C)C(=O)c1ccc(-c2cnc(N)c(OC(C)c3c(Cl)ccc(F)c3Cl)c2)cc1 (stereo not shown) [Example 123, 4-{6-amino-5-[1-(2,6-dichloro-3-fluorophenyl)ethoxy]pyridin-3-yl}-N-methyl-N-[2-(methylamino)ethyl]benzamide]"
9,20,"CC(Oc1cc(-c2ccc(NCC3(O)CCNCC3)nc2)cnc1N)c1c(Cl)ccc(F)c1Cl (stereo not shown) [Example 124, 4-[({6′-amino-5′-[1-(2,6-dichloro-3-fluorophenyl)ethoxy]-3,3′-bipyridin-6-yl}amino)methyl]piperidin-4-ol]"
10,25,"CC(Oc1cc(-c2ccc(C3CCNCC3)cc2)cnc1N)c1c(Cl)ccc(F)c1Cl (stereo not shown) [Example 125, 3-[1-(2,6-dichloro-3-fluorophenyl)ethoxy]-5-(4-piperidin-4-ylphenyl)pyridin-2-amine]"
11,10,"C[C@@H](Oc1cc(-c2ccc(C(=O)N(C)CCN(C)C)cc2)cnc1N)c1c(Cl)ccc(F)c1Cl [Example 126, 4-{6-amino-5-[(1 R)-1-(2,6-dichloro-3-fluorophenyl)ethoxy]pyridin-3-yl}-N-[2-(dimethylamino)ethyl]-N-methylbenzamide]"
12,51,"C[C@@H](Oc1cc(-c2ccc(CO)cc2)cnc1N)c1c(Cl)ccc(F)c1Cl [Example 127, (4-{6-amino-5-[(1R)-1-(2,6-dichloro-3-fluorophenyl)ethoxy]pyridin-3-yl}phenyl)methanol]"
13,10,"C[C@@H](Oc1cc(-c2ccc(C(=O)N(C)CCCN(C)C)cc2)cnc1N)c1c(Cl)ccc(F)c1Cl [Example 128, 4-{6-amino-5-[(1 R^15)-1-(2,6-dichloro-3-fluorophenyl)ethoxy]pyridin-3-yl}-N-[3-(dimethylamino)propyl]-N-methylbenzamide]"
14,30,"C[C@@H](Oc1cc(-c2ccc(C(=O)N3CCN(C(=O)OC(C)(C)C)CC3)cc2)cnc1N)c1c(Cl)ccc(F)c1Cl [Example 129, tert-butyl 4-(4-{6-amino-5-[(1 R)-1-(2,6-dichloro-3-fluorophenyl)ethoxy]pyridin-3-yl}benzoyl)piperazine-1-carboxylate]"
15,71,"CC(Oc1cc(-c2ccc(CO)cc2)cnc1N)c1c(Cl)ccc(F)c1Cl (stereo not shown) [Example 130, (4-{6-amino-5-[1-(2,6-dichloro-3-fluorophenyl)ethoxy]pyridin-3-yl}phenyl)methanol]"
16,133,"COc1ccc(-c2cnc(N)c(OC(C)c3c(Cl)ccc(F)c3Cl)c2)cc1 (stereo not shown) [Example 131, 3-[1-(2,6-dichloro-3-fluorophenyl)ethoxy]-5-(4-methoxyphenyl)pyridin-2-amine]"
17,69,"CC(Oc1cc(-c2cccc(CN)c2)cnc1N)c1c(Cl)ccc(F)c1Cl (stereo not shown) [Example 132, 5-[3-(aminomethyl)phenyl]-3-[1-(2,6-dichloro-3-fluorophenyl)ethoxy]pyridin-2-amine]"
18,41,"CC(Oc1cc(-c2cccc(CC#N)c2)cnc1N)c1c(Cl)ccc(F)c1Cl (stereo not shown) [Example 133, (3-{6-amino-5-[1-(2,6-dichloro-3-fluorophenyl)ethoxy]pyridin-3-yl}phenyl)acetonitrile]"
19,92,"CC(Oc1cc(-c2ccc(CC#N)cc2)cnc1N)c1c(Cl)ccc(F)c1Cl (stereo not shown) [Example 134, (4-{6-amino-5-[1-(2,6-dichloro-3-fluorophenyl)ethoxy]pyridin-3-yl}phenyl)acetonitrile]"

row,Ki [nM],SMILES
1,37,"CC(Oc1cc(-c2ccc(C(=O)N(C)C)cc2)cnc1N)c1c(Cl)ccc(F)c1Cl (stereo not shown) [Example 135, 4-{6-amino-5-[1-(2,6-dichloro-3-fluorophenyl)ethoxy]pyridin-3-yl}-N,N-dimethylbenzamide]"
2,73,"CC(Oc1cc(-c2ccc(O)cc2)cnc1N)c1c(Cl)ccc(F)c1Cl (stereo not shown) [Example 136, 4-{6-amino-5-[1-(2,6-dichloro-3-fluorophenyl)ethoxy]pyridin-3-yl}phenol]"
3,32,"CC(Oc1cc(-c2ccc(NS(C)(=O)=O)cc2)cnc1N)c1c(Cl)ccc(F)c1Cl (stereo not shown) [Example 138, N-(4-{6-amino-5-[1-(2,6-dichloro-3-fluorophenyl)ethoxy]pyridin-3-yl}phenyl) methanesulfonamide]"
4,53,"CCS(=O)(=O)c1ccc(-c2cnc(N)c(OC(C)c3c(Cl)ccc(F)c3Cl)c2)cc1 (stereo not shown) [Example 139, 3-[1-(2,6-dichloro-3-fluorophenyl)ethoxy]-5-(4-(ethylsulfonyl)phenyl]pyridin-2-amine]"
5,39,"COc1cc(-c2cnc(N)c(OC(C)c3c(Cl)ccc(F)c3Cl)c2)ccc1O (stereo not shown) [Example 140, 4-{6-amino-5-[1-(2,6-dichloro-3-fluorophenyl)ethoxy]pyridin-3-yl}-2-methoxyphenol]"
6,54,"CC(Oc1cc(-c2cccc(NS(C)(=O)=O)c2)cnc1N)c1c(Cl)ccc(F)c1Cl (stereo not shown) [Example 141, N-(3-{6-amino-5-[1-(2,6-dichloro-3-fluorophenyl)ethoxy]pyridin-3-yl}phenyl) methanesulfonamide]"
7,59,CC(Oc1cc(-c2cccc(C(=O)N(C)C)c2)cnc1N)c1c(Cl)ccc(F)c1Cl (stereo not shown) [Example 142]
8,72,"CC(Oc1cc(-c2ccc3[nH]cc(CN(C)C)c3c2)cnc1N)c1c(Cl)ccc(F)c1Cl (stereo not shown) [Example 143, 3-[1-(2,6-dichloro-3-fluorophenyl)ethoxy]-5-{3-[(dimethylamino)methyl]-1H-indol-5-yl}pyridin-2-amine]"
9,80,"CC(Oc1cc(-c2ccc(C[C@H](N)C(=O)O)cc2)cnc1N)c1c(Cl)ccc(F)c1Cl (stereo partly shown) [Example 144, 4-{6-amino-5-[1-(2,6-dichloro-3-fluorophenyl)ethoxy]pyridin-3-yl}phenylalanine]"
10,69,"CC(Oc1cc(-c2ccc(CO)nc2)cnc1N)c1c(Cl)ccc(F)c1Cl (stereo not shown) [Example 145, {6′-amino-5′-[1-(2,6-dichloro-3-fluorophenyl)ethoxy]-3,3′-bipyridin-6-yl}methanol]"
11,655,"CC(Oc1cc(-c2ccc(CO)cn2)cnc1N)c1c(Cl)ccc(F)c1Cl (stereo not shown) [Example 146, {6′-amino-5′-[1-(2,6-dichloro-3-fluorophenyl)ethoxy]-2,3′-bipyridin-5-yl}methanol]"
12,73,"CC(=O)c1ccc(-c2cnc(N)c(OC(C)c3c(Cl)ccc(F)c3Cl)c2)cc1 (stereo not shown) [Example 147, 1-(4-{6-amino-5-[1-(2,6-dichloro-3-fluorophenyl)ethoxy]pyridin-3-yl}phenyl) ethanone]"
13,153,"CC(Oc1cc(-c2ccc3c(ccn3C)c2)cnc1N)c1c(Cl)ccc(F)c1Cl (stereo not shown) [Example 148, 3-[1-(2,6-dichloro-3-fluorophenyl)ethoxy]-5-(1-methyl-1H-indol-5-yl)pyridin-2-amine]"
14,370,"COc1ccc(-c2cnc(N)c(OC(C)c3c(Cl)ccc(F)c3Cl)c2)cc1CC#N (stereo not shown) [Example 149, (5-{6-amino-5-[1-(2,6-dichloro-3-fluorophenyl)ethoxy]pyridin-3-yl}-2-methoxyphenyl) acetonitrile]"
15,200,"CC(O)c1cccc(-c2cnc(N)c(OC(C)c3c(Cl)ccc(F)c3Cl)c2)c1 (stereo not shown) [Example 150, 1-(3-{6-amino-5-[1-(2,6-dichloro-3-fluorophenyl)ethoxy]pyridin-3-yl}phenyl)ethanol]"
16,12,"CC(Oc1cc(-c2ccc(C3(C#N)CCNCC3)cc2)cnc1N)c1c(Cl)ccc(F)c1Cl (stereo not shown) [Example 152, 4-(4-{6-amino-5-[1-(2,6-dichloro-3-fluorophenyl)ethoxy]pyridin-3-yl}phenyl) piperidine-4-carbonitrile]"
17,6,"CC(Oc1cc(-c2cccc(C3(C#N)CCNCC3)c2)cnc1N)c1c(Cl)ccc(F)c1Cl (stereo not shown) [Example 153, 4-(3-{6-amino-5-[1-(2,6-dichloro-3-fluorophenyl)ethoxy]pyridin-3-yl}phenyl) piperidine-4-carbonitrile]"
18,22,"CC(=O)N1CCC(C#N)(c2cccc(-c3cnc(N)c(OC(C)c4c(Cl)ccc(F)c4Cl)c3)c2)CC1 (stereo not shown) [Example 154, 1-acetyl-4-(3-{6-amino-5-[1-(2,6-dichloro-3-fluorophenyl)ethoxy]pyridin-3-yl}phenyl) piperidine-4-carbonitrile]"
